# Test results: article PMC3139667, “A Screen against Leishmania Intracellular Amastigotes: Comparison to a Promastigote Screen and Identification of a Host Cell-Specific Hit” (PLoS Neglected Tropical Diseases, 2011)
# Tests used:
# [1] = tested on: L. donovani axenic amastigotes; assay: Dose response study against axenic amastigotes (CellTiter-Glo); format: cell-based, Leishmania donovani; settings: Leishmania donovani; 72 h at 37°C, CellTiter-Glo; read-out: GI50 Axenic amastigote
# Protocol: L. donovani axenic amastigotes (5×10^5 cells/ml in axenic amastigote media) were dispensed in sterile 96-well flat white opaque assay plates (Greiner Bio-One) using a WellMate multichannel dispenser (Matrix). […] 1% DMSO and amphotericin B (2 µM, 1% DMSO final concentration) were added as negative and positive controls respectively. Axenic amastigotes were incubated with the compounds for 72 h at 37°C with 5% CO2. Parasite viability was then measured using CellTiter-Glo as described above.
# THP-1 = assay: Host cell toxicity: THP-1 host nuclei counts in the image-based assay; settings: for GI50: Homo sapiens, THP-1, 72 h, read-out: GI50 THP-1; for Selectivity: ratio between parasite GI50 and THP-1 GI50
# Protocol: (§1) Sterile, black, 96-well, clear bottom plates (Greiner Bio-One) were seeded with exponentially growing THP-1 (5×10^5cells/ml). THP-1 were treated with 0.1 µM phorbol myristate acetate (PMA, Sigma) at 37°C for 48 h to achieve differentiation into adherent, non-dividing macrophages. Maturation of THP-1 cells towards monocyte-macrophage like cells is essential to avoid parasitized cells being overgrown by replicating cells. After activation by PMA, cells were washed and incubated with complete RPMI medium containing stationary phase L. donovani promastigotes at a macrophage/promastigote ratio of 1/15. After 4 h incubation at 37°C, non-internalized promastigotes were removed by 2–3 successive washes with RPMI containing 5% FBS and 5% horse serum. Test compounds (10 µM), positive control (2 µM amphotericin B) or negative control (1% DMSO) were then added to the cultures using a Biomek FXp liquid handler (Beckman Coulter). Cultures were incubated at 37°C for 72 h. Cells were then washed with phosphate-buffered saline (PBS), fixed for 30 minutes with 4% formaldehyde, rinsed again with PBS, stained for 2 h with 4′,6′-diamidino-2-phenylindole (DAPI 300 nM) and finally washed with PBS. […] Images were acquired with an INCell Analyzer 1000 automated epi-fluorescent microscope (G.E. Healthcare). The excitation and emission filters used to detect DAPI were 350/50 nm and 460/40 nm respectively. Eight image fields were acquired per well with a 20X objective. The proprietary INCell Developer Toolbox 1.7 software was used for image analysis. Segmentation parameters were set to identify host nuclei with a minimum area of 250 µm^2 and parasite kinetoplast with an average area of 1 µm^2. The intensity of parasite nucleus was too low to be detected with a 20X objective. A border, representing the boundary of the cell, was drawn around the nucleus (total area between 700 and 2000 µm^2). Only parasites found within this area were included in the calculation to eliminate extracellular parasites. False positive parasite detection in the nucleus was also excluded from the calculation. Host cell nuclei and parasite kinetoplasts were counted and the ratio of parasites DNA to host nuclei was selected as the measurement output. Percentage inhibition of parasite growth was calculated as [1-(P/hcx-P/hc^+)/(P/hc^−-P/hc^+)]*100 where P/hcx, P/hc^+ and P/hc^− are parasite per host cell ratio for every well, positive control (amphotericin B) and negative control (DMSO) respectively. Calculation of Z' factor and GI50 curve fitting were carried out as described above.
# [2] = tested on: L. donovani intracellular amastigotes; assay: Intracellular amastigote high-throughput image-based assay in infected THP-1 macrophages; format: cell-based, Leishmania donovani; settings: for GI50: Leishmania donovani, THP-1, 72 h, L. donovani in THP-1, 72 h, parasites per host cell, read-out: GI50 Intracellular amastigote; for Specificity: ratio between promastigote GI50 and intracellular amastigote GI50, >2 more active against intracellular amastigote, <0.4 more active against promastigotes
# Protocol: as §1
# [3] = tested on: L. donovani promastigotes; assay: Promastigote high-throughput ATP-bioluminescence assay; format: cell-based, Leishmania donovani; settings: Leishmania donovani; 72 h at 27°C, CellTiter-Glo; read-out: GI50 Promastigote
# Protocol: L. donovani promastigotes from an exponentially growing culture were diluted to 10^6/ml in RPMI containing 10% FBS and 10% BHT. The diluted culture (99 µl/well) was dispensed in sterile 96-well flat white opaque assay plates (Greiner Bio-One) using a WellMate multichannel dispenser (Matrix). 1 µl of 1 mM test compound dissolved in DMSO was added to the plates for a final concentration of 10 µM compound and 1% DMSO. Amphotericin B was added as a positive control (final concentration 2 µM, 1% DMSO) and as a negative control, 1 µl DMSO was added (1% final concentration). Compounds and controls were added to the assay plate with the robotic dispenser Biomek FXp liquid handler (Beckman Coulter). Promastigotes were incubated with the compounds for 72 h at 27°C. The parasites were then lysed by adding 50 µl of CellTiter-Glo (Promega) and placed on an orbital shaker for 5 min at room temperature. After lysis, the resulting ATP-bioluminescence was measured using the Analyst HT plate reader (Molecular Devices). Percentage inhibition of parasite growth was calculated for each well as [1-(RLUx-RLU^+)/(RLU^--RLU^+)]*100 where RLUx, RLU^+ and RLU^- are respectively the Relative Light Units for each well, positive (amphotericin B) and negative (DMSO) controls. A screening window coefficient, denoted Z' factor, was used to evaluate the performance of the assay. The Z' factor, calculated as 1-(3σc++3σc−)/(µc+−µc−) where σc+, σc−, µc+ and µc− are respectively the standard deviation and mean values of positive and negative controls, is reflective of the assay signal dynamic range and the data variation associated with signal measurement. […] GI50 curve fitting was carried out using GraphPad Prism 4 Software (GraphPad Software Inc., San Diego, CA).
SMILES,GI50 [1] [µM],GI50 (THP-1) [µM],GI50 [2] [µM],Specificity [2],GI50 [3] [µM],Selectivity (THP-1)
CCOC(=O)C1=C(COCCN)NC(C)=C(C(=O)OC)C1c1ccccc1Cl (centres unmarked) [Amlodipine],27,> 16.5,9.78,0.31,3.11,–
C=C1C(=O)O[C@H]2[C@H]1CC/C(C)=C/CC[C@@]1(C)O[C@@H]21 [Parthenolide],4.35,> 16.5,> 50,0.31,15.5,1.06
Cc1cc(C2CCCCC2)n(O)c(=O)c1 [Ciclopirox],> 50,42,22,0.69,15.2,1.90
[H]/N=C(\N/C(=N/[H])NCCCCCCNC(=N)NC(=N)Nc1ccc(Cl)cc1)Nc1ccc(Cl)cc1 [Chlorhexidine],4.78,> 16.5,1.79,1.56,2.81,9.27
